Series [1] has as its system Canidae. The note with it: oral, Dog Other, clinical signs.
Series [2] has as its system Tagia sp.
The test system of series [3] is Cyprinodon variegatus.
Series [4] concerns Oncorhynchus mykiss.
In series [5] the test system is Colinus virginianus.
The test system of series [6] is Rattus norvegicus.
Series [7] concerns Daphnia magna. To be noted: chronic/long-term; duration: 21 days.
In series [8] the test system is Apis mellifera. The note with it: acute, mortality.
The test system of series [9] is Lepomis macrochirus. To be noted: acute, duration: 96 hours.
Series [10] relates to Bibionidae. To be noted: chronic/long-term.
The subject of series [11] is Aphidius rhopalosiphi. Description: LR50; higher = less toxic. To be noted: not reported; mortality.
Series [12] relates to Pontoscolex corethrurus. To be noted: acute; mortality.
Series [13] has as its system Neomysis kadiakensis. To be noted: chronic/long-term; duration: 28 days.
The mark [14] stands for this setting: short-term, duration: 5 days, oral, diet, food consumption.

Values after ≈ are worked out from the molar mass of the structure shown. Values joined by “and” are separate entries in the source; they are usually repeats but may differ in a detail not shown here. Identical values can stand only once. Where only a bound is given, the exact number is not on record here.

In the case of `N#Cc1nn(-c2c(Cl)cc(C(F)(F)F)cc2Cl)c(N)c1S(=O)C(F)(F)F` (centres undefined) [Fipronil], the NOAEL in [1] (chronic, duration: 1 years) was 0.35 mg/kg-day; in [1] (subchronic, duration: 90 days), 0.35 mg/kg-day; in [6] (chronic, duration: 2 years, clinical signs) it was 0.02 mg/kg-day; in series [6] (developmental, development), 0.9 mg/kg-day; in series [6] (subchronic, duration: 90 days, oral, clinical signs), 0.35 mg/kg-day. Also, the LC50 in series [2] (acute, mortality) was above 1000 mg/kg; in series [3] (acute, duration: 96 hours), 0.13 mg/L (≈ 0.297 µM); in [9] (mortality), 0.0852 mg/L (≈ 0.195 µM). In addition, the NOEC in [2] (chronic/long-term) turned out to be 1000 mg/kg; in series [3] (chronic/long-term, duration: 138 days), 0.006 mg/L; in [4] (chronic/long-term, duration: 90 days), 0.015 mg/L; in [7], 0.0098 mg/L; in series [10], 0.193 µg/kg; in [10] (duration: 28 days), 0.000117 mg/L. Also, the LD50 in series [5] (acute, oral, mortality) was 11.3 mg/kg; in series [6] (acute, oral, M, mortality), 92 mg/kg; in series [8] (dermal) it was 0.00593 µg/piece; in series [8] (oral, unspecified), 0.00417 µg/piece. Moreover, the NOEL is 0.88 mg/kg-day in series [5] (reproduction developmental); 3.77 mg/kg-day in series [5] (setting [14]); 2.53 mg/kg-day in series [6] (reproduction developmental, M, reproduction). The LR50 in series [11] was determined as 0.01 g/ha.

As to `N#Cc1nn(-c2c(Cl)cc(C(F)(F)F)cc2Cl)c(N)c1S(=O)(=O)C(F)(F)F` [Fipronil sulfone], the LC50 in series [12] is above 1000 mg/kg; in [9], 0.025 mg/L (≈ 0.0552 µM). Besides, the NOEL in series [5] (setting [14]) came out at 7.83 mg/kg-day. Besides, the NOEC in [10] turned out to be 6.9e-05 mg/L; in [10] (duration: 28 days) it was 0.165 µg/kg.

In the case of `N#Cc1nn(-c2c(Cl)cc(C(F)(F)F)cc2Cl)c(N)c1SC(F)(F)F` [Fipronil sulfide], the LC50 was above 1000 mg/kg in series [12] and 0.0295 mg/L (≈ 0.07 µM) in series [4] (acute, duration: 96 hours, mortality). Further, the NOEL in series [5] (setting [14]) came to 6.98 mg/kg-day. The NOEC was 0.013 mg/L in series [7]; 4.6e-06 mg/L in [13]; 0.000117 mg/L and 0.000193 mg/kg in [10] (duration: 28 days).

In turn, `N#Cc1nn(-c2c(Cl)cc(C(F)(F)F)cc2Cl)c(N)c1C(F)(F)F` [Fipronil desulfinyl] showed an NOEL in [5] (setting [14]) of 7.12 mg/kg-day.

What is called NOAEL is the highest dose or exposure tested at which no adverse effect was seen.

The values are drawn from EPA's ToxValDB 9.5 (doi:10.2903/j.efsa.2006.65r).
